Consider four compounds from article PMC3110009 (ACS medicinal chemistry letters, 2011).

The target in test [1] is dopamine D2 receptor (D2^high / D2^low) (Rattus norvegicus, UniProt P61169). The class given is binding.
Test [2] addresses dopamine D3 receptor (human D3 clone) (Homo sapiens, UniProt P35462). The test is described as follows: Competitive binding at human D3 clone, [3H]domperidone.

Sequence of dopamine D2 receptor (D2^high / D2^low) (P61169 1-415 isoform P61169-2): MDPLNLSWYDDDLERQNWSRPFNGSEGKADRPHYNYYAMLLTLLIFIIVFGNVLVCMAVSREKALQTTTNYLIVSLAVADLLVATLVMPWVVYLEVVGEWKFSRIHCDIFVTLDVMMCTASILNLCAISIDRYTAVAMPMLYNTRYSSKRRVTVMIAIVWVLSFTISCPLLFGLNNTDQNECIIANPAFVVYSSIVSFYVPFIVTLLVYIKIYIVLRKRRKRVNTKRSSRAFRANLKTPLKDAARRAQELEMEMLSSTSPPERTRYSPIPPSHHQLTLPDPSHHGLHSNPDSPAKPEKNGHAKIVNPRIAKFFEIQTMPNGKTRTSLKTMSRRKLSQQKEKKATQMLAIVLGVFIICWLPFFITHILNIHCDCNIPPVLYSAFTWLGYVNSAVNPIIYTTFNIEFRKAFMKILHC
Sequence of dopamine D3 receptor (human D3 clone) (P35462 whole entry): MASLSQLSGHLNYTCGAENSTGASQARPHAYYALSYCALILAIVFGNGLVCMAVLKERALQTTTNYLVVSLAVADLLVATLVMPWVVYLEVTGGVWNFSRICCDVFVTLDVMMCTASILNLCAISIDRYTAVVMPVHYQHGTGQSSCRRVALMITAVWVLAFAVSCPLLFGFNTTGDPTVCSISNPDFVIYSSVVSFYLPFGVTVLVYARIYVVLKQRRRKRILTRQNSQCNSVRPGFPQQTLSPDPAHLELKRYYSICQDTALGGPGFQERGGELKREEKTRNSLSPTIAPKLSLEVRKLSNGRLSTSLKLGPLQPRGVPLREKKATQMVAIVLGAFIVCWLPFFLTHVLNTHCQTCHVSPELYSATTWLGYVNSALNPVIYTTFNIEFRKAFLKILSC

Take `CCN1CCc2cc(OCCCF)cc3c2[C@H]1Cc1ccc(O)c(O)c1-3` [Compound 8c, N-ethyl-2-fluoropropanoxy catechol-aporphine]: the “fold increase in D2^high affinity” value in test [1] (in comparison to 8a) is given as ~4 fold.

Turning to `CCN1CCc2cc(OCCF)cc3c2[C@H]1Cc1ccc(O)c(O)c1-3` [Compound 8d], the “fold improvement in D2^high binding affinity” value in test [1] (2-fluoroethoxy analog versus N-ethyl 2-fluoropropanoxy analog 8c) is given as “more than 2 fold”.

For the compound `CN1CCc2cc(OCCF)cc3c2[C@H]1Cc1ccc(O)c(O)c1-3` [Compound 8f], in test [2] (human D3 clone, SD), the “Ki D3 [3H]domperidone” value is “no appreciable affinity to D3”.

For `CN1CCc2cc(OCCCF)cc3c2[C@H]1Cc1ccc(O)c(O)c1-3` [Compound 8e], the “Ki D3^high” value in test [2] (high affinity state of D3) is listed as “did not exhibit any D3^high affinity”.
